These results are taken from US20200253877A1, “GEMCABENE, PHARMACEUTICALLY ACCEPTABLE SALTS THEREOF, COMPOSITIONS THEREOF AND METHODS OF USE THEREFOR” (NEUROBO PHARMACEUTICALS, INC., priority 2018, published 2020).

Bounds are passed on as bounds.

The subject of data set [1] is STAM™ mice, a murine model of NASH-HCC. The experiment in a line: Murine STAM model of NASH-HCC: liver histology (H&E, NAFLD Activity Score, Sirius red fibrosis area). The data set is classed as in vivo, mouse. The arrangement: key to NAS (mean ± SD) / NAFLD Activity Score: NAS = unweighted sum of steatosis, lobular inflammation, ballooning scores. As to conditions: for Steatosis score 0: number of mice: score 0 = <5%; for Lobular Inflammation score 0: number of mice: score 0 = No foci; for Hepatocyte Ballooning score 0: number of mice: score 0 = None; for Steatosis score 1: number of mice: score 1 = 5-33%; for Hepatocyte Ballooning score 1: number of mice: score 1 = Few balloon cells; for Lobular Inflammation score 2: number of mice: score 2 = 2-4 foci/200x; for Hepatocyte Ballooning score 2: number of mice: score 2 = Many cells/prominent ballooning; for fibrosis area (Sirius red-positive area): all gemcabene Form 1 groups (30, 100, 300 mg/kg). From the text: The present invention further provides methods for reducing a fibrosis score or a nonalcoholic fatty liver disease activity score in a subject, comprising administering to a subject in need thereof an effective amount of a tablet of the invention, gemcabene calcium salt hydrate Crystal Form 4, gemcabene calcium salt hydrate Crystal Form 5 or gemcabene calcium salt hydrate Crystal Form 6. The nonalcoholic fatty liver disease activity score (NAS or NAFLD score) is a composite score that measures changes in NAFLD during therapeutic trials. NAS is a composite score comprised of three components that includes scores for steatosis, lobular inflammation and hepatocyte ballooning (Table 36). NAS is the unweighted sum of the scores for steatosis, lobular inflammation and hepatocyte ballooning. Steatosis grade is quantified as the percentage of hepatocytes that contain fat droplets. The fibrosis stage of the liver is evaluated separately from NAS by histological evaluation of the intensity of Sirius red staining of collagen in the pericentral region of liver lobules.
A study was performed to evaluate the efficacy of gemcabene calcium salt hydrate Crystal Form 1 having a PSD90 of 52 μm as measured by laser light diffraction, in treating non-alcoholic steatosis hepatitis (NASH) in the murine STAM™ model of NASH-HCC.
Briefly, two-day old neonatal C57BL/6 male mice were administered low-dose streptozotocin (STZ), and were subsequently fed a HFC diet from 4 weeks of age. In this model, the mice typically develop liver steatosis and diabetes, reaching steatohepatitis within 3 weeks, followed by cirrhosis within 8 weeks, and carcinoma within 16 weeks. In the current study, mice were administered daily oral gemcabene calcium salt hydrate Crystal Form 1 starting at week 6 of age and were sacrificed at week 9. […] These STAM™ groups were orally administered from week 6 one of the following: water-vehicle, gemcabene calcium salt hydrate Crystal Form 1 at 30, 100 and 300 mg/kg daily, or telmisartan ([…]®) 10 mg/kg daily. […] All groups were sacrificed at week 9. Vehicle, gemcabene calcium salt hydrate Crystal Form 1, or telmisartan were administered by oral gavage once daily.
For Hematoxylin and Eosin (H&E) staining, sections were cut from paraffin blocks of liver tissue prefixed in Bouin's solution and stained with Lillie-Mayer's Hematoxylin (Muto Pure Chemicals Co., Ltd., Japan) and eosin solution (Wako Pure Chemical Industries). NAFLD Activity score (NAS) was calculated according to the criteria of Kleiner, D E. Et al., Hepatology, 2005; 41:1313-1321. To visualize collagen deposition, Bouin's fixed liver sections were stained using picro-Sirius red solution (Waldeck, Germany). For Masson Trichrome staining, the sections were stained with Masson's Trichrome staining Kit (Sigma, USA) according to the manufacturer's instructions.
For quantitative analysis of fibrosis area, bright field images of Sirius red-stained sections were captured around the central vein using a digital camera (DFC295; Leica, Germany) at 200-fold magnification, and the positive areas in 5 fields/section were measured using ImageJ software (National Institute of Health, USA). Samples were analyzed in a blinded fashion.

Data set [2] in a line: Steady-state gemcabene pharmacokinetics in familial hypercholesterolemia patients (300, 600, 900 mg/day). The data set is classed as in vivo, human. As to conditions: for Tlast: after 28 daily oral doses (film-coated Tablet D), FH patients, median. The procedure:
Additional (trough) samples were collected pre-dose on Day 14, Day 42, Day 70, and at the Early Termination Visit (if applicable). Plasma from these samples were analyzed for gemcabene concentrations and the data used for PK analysis. […] PK parameter estimates were derived by standard non-compartmental analysis methods using a validated installation of Phoenix® WinNonlin® version 6.4. The actual sampling times were used in the PK parameter calculations. All plasma concentrations reported as missing were treated as missing. […] The following gemcabene PK parameters were calculated for each patient from the plasma concentration-time data: AUClast and AUC(0-24) were calculated by numeric integration using the trapezoidal rule with linear up and log down interpolation. […] The individual patient and gemcabene concentration-time data are listed using the number of significant digits or decimal places provided by the bioanalytical lab and nominal sample times, and summarized descriptively in tabular formats by dose level, and visit (for trough samples).

Data set [3] can be described thus: Tablet dissolution in pH 5.0 potassium acetate, USP apparatus 2, UV/Vis fiber optic quantitation (216 nm to 230 nm). The data set is classed as physicochemical. The note with it: film-coated Tablets D, F2, C3, ES (average n=6). The protocol: Tablet's gemcabene dissolution profiles were evaluated using an ultra-violet/visible (uv/vis) light absorption methodology in which dissolved gemcabene in the dissolution media was directly measured inside the dissolution vessel. This method of analysis allowed for real-time measurement of gemcabene dissolution at multiple, closely spaced sampling intervals. This method provides a higher resolution dissolution profile than could be obtained with the HPLC analysis methodology used in Example 13 and allowed for detection of differences in dissolution characteristics between the various gemcabene calcium polymorphs. […] FIG. 56 compares the gemcabene dissolution profiles generated using these two methodologies and Table 28 reports the gemcabene dissolution profiles and % RSD for n=6 dissolution testing conducted with both methods of analysis.

Data set [4] is described as follows: Integrated analysis of efficacy from completed clinical studies: LDL-C. As to conditions: inclusive of all background therapies. The data set is classed as in vivo, human. From the text: Gemcabene calcium salt hydrate Crystal Form 1 given on top of steady-state statins has shown a statin-intensity dependent effect. […] Statins inhibit cholesterol synthesis and upregulate LDL receptor expression to effect LDL-C reduction.

The mark [5] stands for this setting: vs vehicle-treated STAM mice, telmisartan 10 mg/kg.
Where [6] appears, read: vs vehicle-treated STAM mice, gemcabene Form 1 30 and 300 mg/kg, telmisartan 10 mg/kg.
Setting [7] is: 300-900 mg/day, dose proportionality.
Setting [8] is: dose range 300 mg/day to 900 mg/day.

On to `CCCc1nc2c(C)cc(-c3nc4ccccc4n3C)cc2n1Cc1ccc(-c2ccccc2C(=O)O)cc1` [telmisartan, reference compound], for which, in data set [1] (10 mg/kg PO QD, n = 7), the “Lobular Inflammation score 1: number of mice” value worked out at 4, the “NAS (mean ± SD)” value came to 2.6 ± 1.0, the “Steatosis score 0: number of mice” value is listed as 1 and the “Lobular Inflammation score 0: number of mice” value is recorded as 2. Moreover, in data set [1] (10 mg/kg PO QD, n = 7), the “Hepatocyte Ballooning score 0: number of mice” value came to 2, the “Steatosis score 1: number of mice” value was determined as 6, the “Hepatocyte Ballooning score 1: number of mice” value is 4 and the “Lobular Inflammation score 2: number of mice” value is given as 1. Besides, the “Hepatocyte Ballooning score 2: number of mice” value in data set [1] (10 mg/kg PO QD, n = 7) was 1. Also, in data set [1] (10 mg/kg, STAM mice), the “NAFLD Activity Score” value came out at 2.6 and the Sirius red-positive area came out at 0.48%. The “fibrosis area (Sirius red-positive area)” value in data set [1] (setting [5]) is recorded as “significant decreases”. In addition, in data set [1] (setting [6]), the “NAFLD Activity Score (NAS)” value is given as “significant reduction”; the “lobular inflammation and ballooning scores” value was “lower”; the “steatosis (H&E-stained liver sections)” value was “less steatosis”.
For the compound `CC(C)(CCCCOCCCCC(C)(C)C(=O)O)C(=O)O` [gemcabene, 6-(5-carboxy-5-methyl-hexyloxy)-2,2-dimethyl-hexanoic acid], in data set [2] (300 mg/day, n = 8), the Tlast worked out at 25.2 h. The compound further showed a Tlast in data set [2] (600 mg/day, n = 8) of 24.6 h. In addition, the Tlast in data set [2] (900 mg/day, n = 7) worked out at 23.8 h. In data set [2] (setting [7]), the “upper limit of the 95% CI of slope, log AUClast vs log dose” value is recorded as 0.9993 and the “upper limit of the 95% CI of slope, log Cmax vs log dose” value turned out to be 0.9767. In data set [2] (daily dosing, individual trough concentrations), the “time to attain steady state” value was at most 14 days. In data set [2] (setting [8]), the “AUC(0-24) dose proportionality” value was “increased dose proportionally” and the Cmax dose proportionality entry is on record as “slightly less than dose proportional”. Moreover, in data set [1] (30 mg/kg PO QD, n = 8), the “Lobular Inflammation score 1: number of mice” value is listed as 2, the “NAS (mean ± SD)” value is 3.4 ± 1.1, the “Lobular Inflammation score 0: number of mice” value stood at 1 and the “Hepatocyte Ballooning score 0: number of mice” value turned out to be 4. Besides, in data set [1] (30 mg/kg PO QD, n = 8), the “Steatosis score 1: number of mice” value is reported as 8, the “Hepatocyte Ballooning score 1: number of mice” value is given as 2, the “Lobular Inflammation score 2: number of mice” value is 4 and the “Hepatocyte Ballooning score 2: number of mice” value is recorded as 2. Besides, in data set [1] (30 mg/kg PO QD, n = 8, score 3 = >4 foci/200x), the “Lobular Inflammation score 3: number of mice” value is given as 1. Also, in data set [1] (30 mg/kg, STAM mice), the “NAFLD Activity Score” value is 3.4 and the Sirius red-positive area was 0.56%. Further, in data set [1] (100 mg/kg PO QD, n = 8), the “Lobular Inflammation score 1: number of mice” value came out at 1, the “NAS (mean ± SD)” value worked out at 3.6 ± 1.4, the “Lobular Inflammation score 0: number of mice” value is listed as 2 and the “Hepatocyte Ballooning score 0: number of mice” value came out at 1. Further, in data set [1] (100 mg/kg PO QD, n = 8), the “Steatosis score 1: number of mice” value was found to be 8, the “Hepatocyte Ballooning score 1: number of mice” value was 4, the “Lobular Inflammation score 2: number of mice” value is recorded as 5 and the “Hepatocyte Ballooning score 2: number of mice” value was found to be 3. In addition, in data set [1] (100 mg/kg, STAM mice), the “NAFLD Activity Score” value came to 3.6 and the Sirius red-positive area is given as 0.53%. Moreover, in data set [1] (300 mg/kg PO QD, n = 8), the “Lobular Inflammation score 1: number of mice” value is given as 2, the “NAS (mean ± SD)” value turned out to be 2.5 ± 0.8, the “Steatosis score 0: number of mice” value is reported as 3 and the “Lobular Inflammation score 0: number of mice” value was found to be 2. In data set [1] (300 mg/kg PO QD, n = 8), the “Hepatocyte Ballooning score 0: number of mice” value came out at 4, the “Steatosis score 1: number of mice” value is listed as 5, the “Hepatocyte Ballooning score 1: number of mice” value stood at 3 and the “Lobular Inflammation score 2: number of mice” value is recorded as 4. For the same compound, the “Hepatocyte Ballooning score 2: number of mice” value in data set [1] (300 mg/kg PO QD, n = 8) is listed as 1. For the same compound, in data set [1] (300 mg/kg, STAM mice), the “NAFLD Activity Score” value is given as 2.5 and the Sirius red-positive area is reported as 0.59%.
In the case of `CC(C)(CCCCOCCCCC(C)(C)C(=O)O)C(=O)O.[Ca]` [6-(5-Carboxy-5-methyl-hexyloxy)-2,2-dimethylhexanoic acid calcium], in data set [3], the “gemcabene dissolution rate of film-coated tablets, compared among polymorphs” value is reported as “intermediate profile”. For the same compound, the “micro- and macro-vesicular hepatic fat deposition, hepatocellular ballooning and inflammatory cell infiltration (H&E)” value in data set [1] (STAM mice) was “diminished”. Besides, the “fibrosis area (Sirius red-positive area)” value in data set [1] (setting [5]) is on record as “significant decreases”. Moreover, in data set [1] (vs vehicle-treated STAM mice, gemcabene Form 1 100 mg/kg (trending lower)), the “NAFLD Activity Score (NAS)” value is recorded as “no significant difference”. Moreover, in data set [1] (vs vehicle-treated STAM mice, gemcabene Form 1 300 mg/kg), the “steatosis score and ballooning score” value was “significant decrease”. In data set [1] (setting [6]), the “NAFLD Activity Score (NAS)” value is given as “significant reduction”; the “lobular inflammation and ballooning scores” value is on record as “lower”; the “steatosis (H&E-stained liver sections)” value is on record as “less steatosis”. Moreover, the “mean LDL-C reduction” value in data set [4] is “about 21%”.
